Source: patent US9523109B2, “Method for enzymatically preparing peptides for use in improvement of brain function” (CALPIS CO., LTD., priority 2011, dated 2016)
Where no end group is shown, it is not given here.

How the values were obtained:
[1] = tested on: scopolamine-induced amnesia; assay: Y-shaped maze test (spontaneous alternation behavior) after scopolamine-induced brain dysfunction; format: in vivo, Male ddY mice; settings: scopolamine 1 mg/kg s.c.
Description: Male ddY mice (about 7 weeks old) were used (n=15 to 75), and provided with food and water ad libitum. Asn-Ile-Pro-Pro-Leu-Thr-Gln-Thr-Pro-Val-Val-Val-Pro-Pro-Phe-Leu-Gln-Pro-Glu (SEQ ID NO: 1) was used as a test substance in amounts of 0.05 nmol/kg body weight (0.1 μg/kg body weight), 0.5 nmol/kg body weight (1 μg/kg body weight), 1.5 nmol/kg body weight (3 μg/kg body weight), 5 nmol/kg body weight (10 μg/kg body weight), 50 nmol/kg body weight (100 μg/kg body weight), and 500 nmol/kg body weight (1,000 μg/kg body weight). The test substance was administered as a single dose orally to mice 60 minutes before performing a Y-shaped maze test for evaluating spontaneous alternation behavior. Thirty minutes before performing the Y-shaped maze test, scopolamine was subcutaneously administered in an amount of 1 mg/kg body weight into the back to induce brain dysfunction (memory disorder and/or cognition disorder) in mice. In the Y-shaped maze test, as an experiment device, a Y-shaped maze was used in which the length for each arm was 40 cm; the wall height was 12 cm; the floor width was 3 cm; the upper part width was 10 cm; and three arms were connected to each other at an angle of 120°. Each mouse was placed in the end of any of the alms of the Y-shaped maze and allowed to explore freely in the maze over 8 minutes, and the sequence of the arms to which the mouse moved was recorded. The number of movements of the mouse to the arms within the measurement time was counted and used as the total number of entries; in the sequence, the combination in which three different arms were selected in succession (for example, with the three arms respectively called A, B, and C, if the sequence of the arms entered is ABCBACACB, the count is 4 inclusive of overlapping) was investigated, and the count number was used as the number of spontaneous alternation behaviors. The change in spontaneous alternation behavior (%) was calculated by dividing the number of spontaneous alternation behaviors by a number obtained by subtracting 2 from the total number of entries, and multiplying the resultant number by 100, and the percentage was used as an indicator of the spontaneous alternation behavior. […] The measured values were expressed as mean±standard error for each group. The significance of difference between the control group and the scopolamine control group was tested by Student's t-test. […]
Male ddY mice (about 7 weeks old) were used (n=15 to 45), and provided with food and water ad libitum. […] Each mouse was placed in the end of any of the arms of the Y-shaped maze and allowed to explore freely in the maze over 8 minutes, and the sequence of the arms to which the mouse moved was recorded. […]

memory retention = assay: novel object recognition test for evaluating memory retention; format: in vivo, Male ddY mice; settings: Example 6, FIG. 7; single oral dose 500 nmol/kg body weight (1,000 μg/kg) 60 min before training trial; retention trial 48 hours later
Description: Male ddY mice (about 7 weeks old) were used (n=14 to 15), and provided with food and water ad libitum. As a test substance, 500 nmol/kg body weight (1,000 μg/kg body weight) of Asn-Ile-Pro-Pro-Leu-Thr-Gln-Thr-Pro-Val-Val-Val-Pro-Pro-Phe-Leu-Gln-Pro-Glu (SEQ ID NO: 1) was used. The test substance was administered as a single dose orally to mice 60 minutes before performing a novel object recognition test for evaluating memory retention. In the novel object recognition test, a 30×30×30 cm box was used as an experiment device. As a conditioning operation, a mouse was placed in an experiment device in which a floorcloth was laid for 5 minutes, and allowed to explore freely in the device. A training trial was performed the day following the conditioning operation. […] Sixty minutes after orally administering the test substance or water, a mouse was placed in the experiment device for 5 minutes, and the time (second) was measured during which the mouse explored by approaching each object to be within 1 cm therefrom. […] (However, the state in which a mouse rides on an object is excluded.) The percentages of the times were determined during which two objects were explored in each of the training trial and the retention trial. The percentage (%) of the exploration time for each object was expressed as mean±standard error for each of the groups. […]

[2] = Example 5, FIG. 6, single oral dose 50 nmol/kg body weight 60 min before test

Sequence | amnesia-preventing action (change in spontaneous alternation behavior) ([1]; Example 7, FIG. 8, single oral dose 150 nmol/kg body weight to 500 nmol/kg body weight (380 to 1,280 μg/kg)) | amnesia-preventing action (change in spontaneous alternation behavior) ([1]; Example 4, FIG. 5, single oral dose 60 min before test, range 0.05 nmol/kg body weight to 500 nmol/kg body weight (0.1 to 1,000 μg/kg)) | amnesia-preventing action (change in spontaneous alternation behavior) [1, 2] | memory-enhancing action (percentage of exploration time for novel object) (memory retention)
SWMHQPHQPLPPTVMFPPQSVL [SEQ ID NO: 3] | amnesia-preventing action | – | – | –
NIPPLTQTPVVVPPFLQPE [SEQ ID NO: 1] | – | amnesia-preventing action | amnesia-preventing action | memory-enhancing action
NIPPLTQTPVVVPPFLQPEVM [SEQ ID NO: 2] | – | – | amnesia-preventing action | –
